Source: US9101567B2, “Suppression of cancer growth and metastasis using nordihydroguaiaretic acid derivatives with 7-hydroxystaurosporine” (The Johns Hopkins University, priority 2010, dated 2015)

Key:
[1] = system: caspase-7; experiment: Western blotting of caspase-7 cleavage in MCF-7 cells; type: cell-based, human; conditions: MCF-7, 17 hrs; M4N 80 μM, etoposide 20 μM, rapamycin 20 μM, UCN-01 5 μM
Procedure: The sample volumes were adjusted by the total protein amount. Protein assay was performed by Bio-Rad Protein Assay (Bio-Rad Laboratories, Inc. Hercules, Calif.). The samples were resolved by the standard SDS-polyacrylamide gel electrophoresis and transferred to nitrocellulose membrane (Amersham Biosciences, Bjorkgatan, Sweden). The membranes were blocked with skim milk, and incubated with primary antibodies at 4° C. overnight and then with secondary antibody conjugated with horse radish peroxidase at room temperature for 2 hrs. The signals were detected by western blot chemiluminescence reagent plus (New England Nuclear Life Science Products, Boston, Mass.).
The effect of the combination treatments on cell death and autophagy was examined in two cell lines other than LNCaP cells.

[2] = system: caspase-3 or 9; experiment: Western blotting of caspase-3 and 9 cleavage in HepG2 cells; type: cell-based, human; conditions: HepG2, 17 hrs; M4N 80 μM, UCN-01 5 μM
Procedure: After cells had been grown in […] flasks and treated with reagents, the cells were washed with PBS (−) three times and suspended in RIPA buffer (150 mM NaCl, 50 mM Tris-HCl (pH 8.0), 0.1% SDS, 1% NP40, and 0.5% deoxycholate) supplemented with protease inhibitor cocktail (Calbiochem, San Diego, Calif.). The sample volumes were adjusted by the total protein amount. Protein assay was performed by Bio-Rad Protein Assay (Bio-Rad Laboratories, Inc. Hercules, Calif.). The samples were resolved by the standard SDS-polyacrylamide gel electrophoresis and transferred to nitrocellulose membrane (Amersham Biosciences, Bjorkgatan, Sweden). […] The signals were detected by western blot chemiluminescence reagent plus (New England Nuclear Life Science Products, Boston, Mass.).
The effect of the combination treatments on cell death and autophagy was examined in two cell lines other than LNCaP cells. […] On the contrary caspase-7 cleavage was detected in MCF-7 cells treated with UCN-01 treatment alone, the combination treatments of M4N with either etoposide or UCN-01 (FIG. 4C). […] On the contrary a great deal of caspase-7 cleavage product was detected in HepG2 cells treated with UCN-01 or the combination treatment of M4N with UCN-01 while a small amount of caspase-7 cleavage product was detected in the cells treated with etoposide or rapamycin regardless of a concomitant treatment with M4N (FIG. 4C).

[3] = system: LNCaP tumors; experiment: Nude mice orthotopically implanted with LNCaP tumors: life-span and lung metastasis; type: in vivo, nude (nu/nu) mice; conditions: LNCaP tumor-bearing nude mice; lung sections, hematoxylin and eosin
Procedure: T-cell deficient male nude mice (nu/nu) were obtained from Charles River Laboratories (Wilmington, Mass.). […] For drug combinations (M4N/etoposide, M4N/rapamycin, and M4N/UCN-01), etoposide, rapamycin, or UCN-01 powder was further added to M4N in CPE 25/30 to make a final concentration of M4N (10 mg/ml) respectively with etoposide (4 mg/ml), rapamycin (3.75 mg/ml), or UCN-01 (884 g/ml) in CPE 25/30 formulation. These drugs were intravenously injected into the tail vein of mice at the daily dose of 0.1 ml per mouse. Therefore dosages of each injection were 1 mg/shot (for M4N), 0.4 mg/shot (for etoposide), 0.375 mg/shot (for rapamycin), and 88.4 μg/shot (for UCN-01). The drug injections were performed once every day; beginning at day 3 until day 31 after tumor inoculation for the combination treatment with either etoposide or rapamycin and until day 25 after tumor inoculation for the combination treatment with UCN-01. After this the drugs were injected once a week for etoposide/rapamycin combination treatment and once every three days until day 35 for UCN-01 combination treatment.
LNCaP cells growing subconfluently were collected into the tissue culture medium without fetal bovine serum and antibiotics. The cell concentration was adjusted by the same medium. […]

[4] = system: BNIP3L; experiment: Western blotting of BNIP3L in LNCaP cells; type: cell-based, human; conditions: M4N 80 μM
Procedure: The sample volumes were adjusted by the total protein amount. Protein assay was performed by Bio-Rad Protein Assay (Bio-Rad Laboratories, Inc. Hercules, Calif.). The samples were resolved by the standard SDS-polyacrylamide gel electrophoresis and transferred to nitrocellulose membrane (Amersham Biosciences, Bjorkgatan, Sweden). The membranes were blocked with skim milk, and incubated with primary antibodies at 4° C. overnight and then with secondary antibody conjugated with horse radish peroxidase at room temperature for 2 hrs. The signals were detected by western blot chemiluminescence reagent plus (New England Nuclear Life Science Products, Boston, Mass.). BNIP3 is a member of Bcl-2 family proteins which sends pro-apoptotic signal to mitochondria and induces mitochondrial membrane potential depolarization. […] This implies that BNIP3 is involved in autophagy as well as cell death. […] Since BNIP3 is known to be activated more under hypoxic conditions (24), BNIP3 expression was examined in both normoxic and hypoxic conditions (FIGS. 3A&B). […] Previously it was shown that BNIP3 expression is augmented by hypoxia through both […] (HIF)1α-dependent and nondependent pathways (24).

[5] = system: BNIP3; experiment: Western blotting of BNIP3 in LNCaP cells, normoxic or hypoxic; type: cell-based, human; conditions: normoxic or hypoxic condition, M4N 80 μM
Excerpt: LNCaP human prostate cancer, DU145 human prostate cancer, PC3 human prostate cancer, MCF-7 human breast cancer, MDA-MB-231 human breast cancer, MDA-MB-468 human breast cancer, HT29 human colon cancer, K562 human myelogenous leukaemia, HepG2 human hepatoma, Hep3B human hepatoma, and LN229 human glioblastoma cancer cell lines were purchased from American Type Culture Collection (Manassas, Va.). OC24 human ascites ovarian cancer cell line was a generous gift from Dr. XXX (Johns Hopkins University, MD). LNCaP cell line was cultured in RPMI1640 medium supplemented with glucose (14 mM), pyruvate (1 mM), and fetal bovine serum (FBS) (10%). DU145 cell line was cultured in MEM supplemented with non-essential amino acids, glucose (21 mM), pyruvate (1 mM), and FBS (10%). PC3 cell line was cultured in F-12K medium supplemented with FBS (10%). MCF-7 cell line was cultured in DMEM supplemented with FBS (10%). OC24 cell line was cultured in RPMI1640 medium supplemented with FBS (10%) as suspension culture. MDA-MB-231 and 468 cell lines were cultured in Leibovitz's L15 medium supplemented with FBS (10%) under air. HT29 cell line was cultured in DMEM supplemented with glucose (25 mM) and FBS (10%). K562 cell line was cultured in RPMI1640 supplemented with FBS (10%). […] The signals were detected by western blot chemiluminescence reagent plus (New England Nuclear Life Science Products, Boston, Mass.). […]

CN[C@@H]1C[C@H]2O[C@@](C)([C@@H]1OC)n1c3ccccc3c3c4c(c5c6ccccc6n2c5c31)C(=O)N[C@H]4O [UCN-01, 7-hydroxystaurosporine]
caspase-7 cleavage [1]: detected | caspase-3 cleaved product [2]: small amount

COc1ccc(C[C@@H](C)[C@@H](C)Cc2ccc(OC)c(OC)c2)cc1OC [M4N, Tetra-O-methyl nordihyroguaiaretic acid]
mice with obvious lung metastasis (histology) [3]: 2 out of 4 | BNIP3L expression [4]: only slightly reduced | BNIP3 protein expression [5]: blocks BNIP3 protein expression
